The text below walks through data of patent US20230065158A1, “OXABICYCLOHEPTANES FOR TREATMENT OF SMALL CELL LUNG CANCER” (Lixte Biotechnology, Inc., priority 2021, published 2023).

Entries after “also recorded” stand apart in the source; their conditions may differ. Like-named read-outs stand apart in the source and are kept apart here.

One data set has as its system advanced solid tumors. Conditions: cited from earlier work.
The next data set relates to H69 cells. The data set is described as follows: Cell Counting Kit-8 cytotoxicity and drug combination, H69. As for the experimental part: A Mann-Whitney U test was used for comparison between the normal and SCLC samples. FIG. 1B: IHC for PP2A was conducted on TMA tissue sections and images were captured at 4× or 20× using a 3D-Histech PANNORAMIC SCAN whole slide scanner (3D-Histech, Budapest, Hungary). […] TMAs were scored in normal (n=24) and tumor (n=79) cores on a scale from 0 (no staining/no protein expression) to 3+(strong staining/high protein expression). FIG. 1C: Summary bar graph of the average PP2A subunit staining. IHC staining intensity of normal and tumor cores. […] FIG. 1D: In order to compare the expression of PP2A subunits A and C, cell lysates from seven SCLC cell lines and HBEC 3KT (non-malignant cell line) were subjected to western blotting. FIG. 1E: PP2A activity was determined using a serine/threonine phosphatase activity assay (Millipore) after 24 h exposure to cantharidin (10 μM) and LB-100 (5 μM). […] The Cell Counting Kit-8 assay detected cell H524 and H69 cell viability. […] FIGS. 1I-1K: Graphs depict the mean+SEM of percent viability for cells (n=3). Colony formation assays were used to count the ability of H524 (FIGS. 11 and 1J) and H69 (FIGS. 1K and 1L) cells to form colonies. […] Representative images of colonies at 4× are shown under the graph (n=2).*p<0.05; **, p<0.01; *** p<0.001; ****, p<0.0001. Experiments were repeated in triplicate and representative data are shown.

In another data set the test system is H524 cells. In words: Seahorse XF Cell Energy Phenotype Test. As to conditions: LB100 2.5 μM. Format: cell-based. As for the experimental part: FIGS. 5A-5F depict the effect of LB-100 on cell energy phenotype in SCLC cells. FIG. 5A: LB100 treatment (2.5 μM) induced metabolic switch in H524 cells. Cell energy phenotype was obtained by using XF Cell Energy Phenotype Reporter Generator. Empty squares indicate baseline energy phenotype, solid squares represent stressed energy phenotype measured after oligomycin/FCCP injection. FIGS. 5B and 5C: OCR and ECARin control (blue circles) and LB-100 (orange circles) H524 cells were measured overtime. (n=2, six different wells for each […]). FIG. 5D: Effect of LB-100 (10 μM) on H69 cell energy phenotype. FIGS. 5E and 5F: Effect of mitochondrial stressor on OCR and ECAR in H69 cells. Blue circles indicate control and orange circles show LB-100 treatment. (n=2, six technical replicates).
Next, we determined the effect of LB100 on ATP production in SCLC cells employing the Seahorse XF Cell Energy Phenotype Test. […] After drug treatment, we counted the number of cells and examined them for viability using exclusion of trypan blue as a readout. Cellular basal oxygen consumption rate (OCR) and extra-cellular acidification rate (ECAR) measurements were determined on a Seahorse XF96 analyzer. […]

The next data set has as its system H446 cells. Conditions: human, 72 h.
Data set [1] has as its target protein phosphatase 2A (PP2A) (Homo sapiens, UniProt P67775). The data set is described as follows: Inhibition of PP2A versus PP1. It is filed as biochemical. Conditions: PP2A vs PP1.
Another data set deals with H82 cells. The data set is described as follows: Cell Counting Kit-8 cytotoxicity, H82. Conditions: read-out: Cytotoxicity IC50; H82; 72 hours. (Formazan colour is commonly taken as a measure of viable cells.)

Chain of protein phosphatase 2A (PP2A) (P67775 whole entry): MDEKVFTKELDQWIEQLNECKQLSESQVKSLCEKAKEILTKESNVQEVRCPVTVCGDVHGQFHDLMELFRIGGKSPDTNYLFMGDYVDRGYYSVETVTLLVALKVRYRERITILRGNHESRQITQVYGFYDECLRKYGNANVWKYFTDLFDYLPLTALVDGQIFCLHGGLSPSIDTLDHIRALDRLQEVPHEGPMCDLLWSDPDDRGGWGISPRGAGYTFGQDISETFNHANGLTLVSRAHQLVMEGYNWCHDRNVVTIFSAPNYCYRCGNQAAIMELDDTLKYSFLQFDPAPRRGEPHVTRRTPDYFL
Excerpt for H446 cells: (§1) To determine specific cytotoxicity, we used Cell Counting Kit-8 (Dojindo Molecular Technologies, Rockville, Md.) as previously described (50).
Excerpt for H82 cells: as §1

In general, IC50 refers to the concentration needed to halve the response being measured. In the case of `C[NH+]1CCN(C(=O)C2C(C(=O)O)[C@H]3CC[C@@H]2O3)CC1` (stereo in doubt) [LB-100, 3-[(4-Methylpiperazin-1-yl)carbonyl]-7-oxabicyclo[2.2.1]heptane-2-carboxylic acid], the “tolerability / adverse events” value in the data set with advanced solid tumors (Phase I trial) was “no notable adverse events; also recorded: well tolerated”. Moreover, the “patients who achieved stable disease” value with advanced solid tumors (Phase I, advanced solid tumors) is 10 out of 20. Moreover, the IC50 with H69 cells (Homo sapiens, NCI-H69, 72 h, read-out: Cytotoxicity IC50, H69, 72 hours) was about 20 µM; in the data set with H69 cells (human, 72 h), 22.6 µM; with H446 cells, 6.9 µM. In addition, the “basal OCR lower compared to untreated cells” value with H524 cells was 4 fold. For the same compound, in data set [1], the “inhibits PP2A more efficiently than protein phosphatase 1 (PP1)” value is “about 80 fold”.

In the case of `N.N.O=C([O-])C1(C(=O)[O-])CCC1.[Pt+2]` [Carboplatin, reference compound], the concentration for half-maximal inhibition (IC50) in the data set with H82 cells was found to be 46.5 µM.
